Measurements published in US9776992B2, “1-oxo-1,2-dihydroisoquinolin-7-yl-(5-substituted-thiophen-2-yl)-sulfonamide compounds, formulations containing those compounds, and their use as AICARFT inhibitors in the treatment of cancers” (Eli Lilly and Company, priority 2014, dated 2017).

How the values were obtained:
[1] = test system: panel of cell lines; test: In vitro proliferation assay, cell line panel (CellTiter-Glo); type: cell-based; conditions: standard media conditions; summary of Table 17
Procedure: (§1) Cells are grown using the cell banks recommended culture conditions on the date of sample acquisition. Prepare complete medium adding appropriate horse serum (ex. Invitrogen, Cat. No. 16050130) or FBS (ex. Invitrogen, Cat. No. 10099-141 or Hyclone Cat. No. CH30160.03) and additives.
(§2) For attached cell lines, remove and discard culture medium using a vacuum pump. […] Add 3.0 mL of Trypsin-EDTA solution to flask and observe cells under an inverted microscope until cell layer is dispersed. Add 8.0 mL of complete growth medium and aspirate cells by gently pipetting.
(§3) For suspension cell lines, transfer the cell suspension to a centrifuge tube and centrifuge at 800-1000 rpm for 3-5 minutes. Discard the supernatant using a vacuum pump. Add the appropriate volume of complete medium. Suspend the cell pellet by gently pipetting. Count the cell numbers and adjust cells to the appropriate seeding density. […]
(§4) Determine the concentrations to be tested and dilute the compounds to 200×final concentration in low folate media. […] Incubate plates at 37° C. for approximately 2 doubling times as determined for each cell line. […] Paste the clear bottom with white back seal and record luminescence with Flexstation3 (Molecular Devices). The settings should be: Luminescence, integration time 500 ms. […]

[2] = test system: large cell lung cancer NCI-H460; test: In vitro proliferation assay, NCI-H460; type: cell-based; conditions: Homo sapiens; NCI-H460, standard media conditions
Procedure: as §1, §2, §3, §4

[3] = test system: colorectal carcinoma HCT-116; test: In vitro proliferation assay, HCT-116; type: cell-based; conditions: Homo sapiens; HCT-116, standard media conditions
Procedure: as §1, §2, §3, §4

[4] = test system: AICARFT; test: Pharmacodynamic response in beagle dogs (plasma AICAr); type: in vivo, beagle dog; conditions: for Mean Plasma AICAr: beagle dogs, orally, time of collection post dose 8; for in vivo inhibition of AICARFT (in words): dogs, summary of Table 20
Procedure: The in vivo effects of AICARFT inhibition on the circulating concentration of AICAr is determined by liquid chromatography-mass spectrometry (LC-MS). Standard curves containing AICAr at concentrations of 1 ng/mL-2000 ng/mL are prepared in 40 mM ammonium acetate, pH 4. Plasma samples (75 μL) or standards (75 μL) are combined with 300 μL of an internal standard solution containing 13C5-AICAr (20 ng/mL) and formic acid (1%) in ACN. The samples are vortex mixed for 5 minutes and passed through a Phenomenex Phree 96-well phospholipid removal SPE plate. The eluents are collected in a 96-well plate and dried under heated nitrogen at 50° C. Each sample is reconstituted in 50 μL of 40 mM ammonium acetate, pH 4. The plates are sealed and vortexed for 5 minutes prior to analysis. The LC-MS method utilized a Shimadzu Prominence 20A HPLC system connected to an AB Sciex 5500™ or an AB Sciex 6500™ triple quadrupole mass spectrometer running Analyst® software. Extracted samples are separated using two Thermo Hypercarb™ Javelin guard columns (2.1×20 mm, 5 μm) connected in series with an injection volume of 15 μL and a flow rate of 1 mL/minute. Mobile phase A is a 95:5 mixture of 50 mM ammonium formate, pH 4 and ACN. Mobile phase B is a 70:30 mixture of ACN and MeOH spiked with 0.3% formic acid and 2% concentrated ammonium hydroxide solution (v/v). For mouse plasma samples the following gradient is used: 0 minutes, 0% B; 0.25 minutes, 0% B; 2.00 minutes, 25% B; 2.01 minutes, 95% B; 3.50 minutes, 95% B; 3.51 minutes, 0% B; 4.50 minutes, stop. For dog plasma samples the following gradient is used to remove endogenous interferences: 0 minutes, 0% B; 0.25 minutes, 0% B; 5.99 minutes, 20% B; 6.00 minutes, 95% B; 8.00 minutes, 95% B; 8.01 minutes, 0% B; 10.00 minutes, stop. The mass spectrometer is operated in positive ion TurboIonSpray® multiple reaction monitoring mode with a source temperature of 700° C. The precursor and fragment ions for each analyte are: AICAr (259→127) and 13C5-AICAr (264→127). Calibration curves are constructed by plotting analyte concentrations vs. analyte/internal standard peak area ratios and performing a linear fit of the data using a 1/concentration weighting with AB Sciex MultiQuant™ 2.1 software.
Beagle dogs, non-human primates and human are low serum folate species, whereas rodents are high serum folate (C P Leamon et al. (2008) JPET 327:918-925). The pharmacodynamics response in dogs treated with an AICARFT inhibitor will be more representative of the expected pharmacodynamics response in patients treated with an AICARFT inhibitor.
Animals are returned to the colony for re-use after completion of the experiment.

[5] = test system: panel of 46 cancer cell lines; test: Low folate in vitro proliferation assay, cancer cell line panel (Alamar Blue); conditions: media conditions with folate levels similar to human plasma; summary of Table 18
Procedure: Supplement 500 mL Gibco folate free RPMI media (Gibco #27016-021) with 1 M Hepes (5 mL), 100 mM Na pyruvate (5 mL) and 0.5 g/mL glucose (2.5 mL) to match high folate ATCC RPMI media (ATCC #30-2001). To make complete media, both regular and folate free RPMI medias are supplemented with 10% FBS. The addition of FBS to folate free media adds low levels of folate and is now considered to be low folate media.
Transfer cells growing in high folate RPMI media (ATCC #30-2001)+10% FBS (Hyclone #SH30070.03) to low folate RPMI media and folate starve for 7 days. Wash cells grown in high folate media with PBS, trypsinize, and resuspend in low folate media. Grow cells in low folate media for 7 days making sure to seed tissue culture flasks at a density that will not exceed 80% confluence after 7 days. Wash cells in PBS, trypsinize, and resuspend in low folate media and count cells. Seed 96 well poly D lysine plate (Corning #354640) at 3000 cells/well in 100 μl low folate media. Allow cells to attach overnight. Prepare 10 mM DMSO stocks of compounds to be tested in proliferation assay. Determine concentrations to be tested and dilute compounds to 2× final concentration in low folate media. Calculate % DMSO of this solution and use this value as diluent. […] Read plates on the Envision plate reader (Perkin Elmer), or other fluorescent plate reader, with excitation at 570 nm and emission at 585 nm. […]

Row | Structure (SMILES) | inhibition of proliferation of cancer cells (in words) [1] | IC50 [2] [nM] | IC50 [3] [µM] | Mean Plasma AICAr ([4]; 10 mg/kg QD) [nM] | Mean Plasma AICAr ([4]; 30 mg/kg QD) [nM] | Mean Plasma AICAr ([4]; 100 mg/kg QD) [nM] | Mean Plasma AICAr ([4]; 300 mg/kg QD) [nM] | in vivo inhibition of AICARFT (in words) [4] | inhibition of proliferation of cancer cells (in words) [5]
1 | O=c1[nH]ccc2cc(F)c(NS(=O)(=O)c3ccc(N4C[C@@H](O)C(F)(F)C4)s3)cc12 [Example 41, 5-[(4R)-3,3-difluoro-4-hydroxypyrrolidin-1-yl]-N-(6-fluoro-1-oxo-1,2-dihydroisoquinolin-7-yl)thiophene-2-sulfonamide] | inhibit proliferation of cancer cells | 1880 | 10.8 | 158 | 362 | 1534 | 1373 | demonstrate in vivo inhibition of AICARFT | –
2 | O=c1[nH]ccc2cc(F)c(NS(=O)(=O)c3ccc(N4C[C@@H](O)[C@@H](F)C4)s3)cc12 (single isomer, unassigned) [Example 33] | – | – | – | 98 | 213 | 726 | 1150 | demonstrate in vivo inhibition of AICARFT | –
3 | O=c1[nH]ccc2cc(F)c(NS(=O)(=O)c3ccc(N4CC[C@@H](O)C4)s3)cc12 [Example 1, N-(6-Fluoro-1-oxo-1,2-dihydroisoquinolin-7-yl)-5-[(3R)-3-hydroxypyrrolidin-1-yl]thiophene-2-sulfonamide] | inhibit proliferation of cancer cells | 610 | 8.1 | 138 | 254 | 652 | 931 | demonstrate in vivo inhibition of AICARFT | inhibits proliferation of cancer cells
